From PubChem BioAssay AID2060906 (Molecular Pharmacology Branch, DTP, NCI, 2025)

Test system: 485176-168-R4-J1-PDC complex spheroid growth
Experiment: Anticancer human tumor 485176-168-R4-J1-PDC patient-derived pancreatic adenocarcinoma cell line growth inhibition [RAS]
Conditions: for IC50: curve of first compound; for viability, T/C: stronger effect = lower value
How it was run: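 Multi-cell-type spheroids: tumor cells plus HUVEC endothelial cells and mesenchymal stem cells. RAS-pathway inhibitors were combined with targeted agents, each dosed in half-log steps down from clinical Cmax, or from 10 microM when Cmax was unknown.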

[1] = second compound 0.000949 µM, first compound 0.0316 µM
[2] = second compound 0.000949 µM, first compound 0.1 µM
[3] = second compound 0.000949 µM, first compound 0.316 µM
[4] = second compound 0.000949 µM, first compound 1 µM
[5] = second compound 0.000949 µM, first compound 3.16 µM
[6] = second compound 0.000949 µM, first compound 10 µM
[7] = second compound 0.003 µM, first compound 0.0316 µM
[8] = second compound 0.003 µM, first compound 0.1 µM
[9] = second compound 0.003 µM, first compound 0.316 µM
[10] = second compound 0.003 µM, first compound 1 µM
[11] = second compound 0.003 µM, first compound 3.16 µM
[12] = second compound 0.003 µM, first compound 10 µM
[13] = second compound 0.00949 µM, first compound 0.0316 µM
[14] = second compound 0.00949 µM, first compound 0.1 µM
[15] = second compound 0.00949 µM, first compound 0.316 µM
[16] = second compound 0.00949 µM, first compound 1 µM
[17] = second compound 0.00949 µM, first compound 3.16 µM
[18] = second compound 0.00949 µM, first compound 10 µM
[19] = second compound 0.03 µM, first compound 0.0316 µM
[20] = second compound 0.03 µM, first compound 0.1 µM
[21] = second compound 0.03 µM, first compound 0.316 µM
[22] = second compound 0.03 µM, first compound 1 µM
[23] = second compound 0.03 µM, first compound 3.16 µM
[24] = second compound 0.03 µM, first compound 10 µM
[25] = second compound 0.0949 µM, first compound 0.0316 µM
[26] = second compound 0.0949 µM, first compound 0.1 µM
[27] = second compound 0.0949 µM, first compound 0.316 µM
[28] = second compound 0.0949 µM, first compound 1 µM
[29] = second compound 0.0949 µM, first compound 3.16 µM
[30] = second compound 0.0949 µM, first compound 10 µM
[31] = second compound 0.3 µM, first compound 0.0316 µM
[32] = second compound 0.3 µM, first compound 0.1 µM
[33] = second compound 0.3 µM, first compound 0.316 µM
[34] = second compound 0.3 µM, first compound 1 µM
[35] = second compound 0.3 µM, first compound 3.16 µM
[36] = second compound 0.3 µM, first compound 10 µM
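Note: spheroids exposed to compounds for seven days before readout.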
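Throughout, for viability, T/C: luminescence viability expressed relative to DMSO vehicle wells set as 100%.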

## CC(C)NCC(C(=O)N1CCN(c2ncnc3c2C(C)CC3O)CC1)c1ccc(Cl)cc1 (stereo unspecified) + CCn1c(-c2cccnc2C(C)OC)c2c3cc(ccc31)N1CCOC(CC(NC(=O)C(C(C)C)N(C)C(=O)C3(F)CCN(C(=O)C#CC(C)(C)N(C)C)CC3)C(=O)N3CCCC(N3)C(=O)OCC(C)(C)C2)C1
Second compound 0.000949 µM
  IC50: 2.21 µM
Second compound 0.003 µM
  IC50: 1.7 µM
Second compound 0.00949 µM
  IC50: 1.25 µM
Second compound 0.03 µM
  IC50: 1.18 µM
Second compound 0.0949 µM
  IC50: 1.29 µM
Second compound 0.3 µM
  IC50: 0.51 µM
[1]
  viability, T/C: 98.8%
[2]
  viability, T/C: 86%
[3]
  viability, T/C: 79.7%
[4]
  viability, T/C: 60%
[5]
  viability, T/C: 44.9%
[6]
  viability, T/C: 30%
[7]
  viability, T/C: 98.4%
[8]
  viability, T/C: 91%
[9]
  viability, T/C: 76.7%
[10]
  viability, T/C: 59.1%
[11]
  viability, T/C: 39.6%
[12]
  viability, T/C: 28.9%
[13]
  viability, T/C: 91.8%
[14]
  viability, T/C: 103%
[15]
  viability, T/C: 73%
[16]
  viability, T/C: 52.6%
[17]
  viability, T/C: 45.4%
[18]
  viability, T/C: 31.2%
[19]
  viability, T/C: 84.5%
[20]
  viability, T/C: 91.1%
[21]
  viability, T/C: 74.1%
[22]
  viability, T/C: 53.7%
[23]
  viability, T/C: 34.7%
[24]
  viability, T/C: 32.4%
[25]
  viability, T/C: 94%
[26]
  viability, T/C: 90.7%
[27]
  viability, T/C: 78.7%
[28]
  viability, T/C: 50.4%
[29]
  viability, T/C: 40.9%
[30]
  viability, T/C: 26.9%
[31]
  viability, T/C: 73.6%
[32]
  viability, T/C: 81%
[33]
  viability, T/C: 51.7%
[34]
  viability, T/C: 40.6%
[35]
  viability, T/C: 27.3%
[36]
  viability, T/C: 17.6%

## CC(Nc1ccc2c(c1)OCCn1cc(N3C(=O)OCC3C(F)F)nc1-2)C(N)=O (stereo unspecified) + CCn1c(-c2cccnc2C(C)OC)c2c3cc(ccc31)N1CCOC(CC(NC(=O)C(C(C)C)N(C)C(=O)C3(F)CCN(C(=O)C#CC(C)(C)N(C)C)CC3)C(=O)N3CCCC(N3)C(=O)OCC(C)(C)C2)C1
Second compound 0.000949 µM
  IC50: 8.61 µM
Second compound 0.003 µM
  IC50: 8.69 µM
Second compound 0.00949 µM
  IC50: 9.14 µM
Second compound 0.03 µM
  IC50: > 10 µM
Second compound 0.0949 µM
  IC50: > 10 µM
Second compound 0.3 µM
  IC50: 5.26 µM
[1]
  viability, T/C: 92.9%
[2]
  viability, T/C: 73.4%
[3]
  viability, T/C: 93.6%
[4]
  viability, T/C: 77.1%
[5]
  viability, T/C: 84.2%
[6]
  viability, T/C: 45%
[7]
  viability, T/C: 97.2%
[8]
  viability, T/C: 86.6%
[9]
  viability, T/C: 85.7%
[10]
  viability, T/C: 74.5%
[11]
  viability, T/C: 85.4%
[12]
  viability, T/C: 45.2%
[13]
  viability, T/C: 94.4%
[14]
  viability, T/C: 79.2%
[15]
  viability, T/C: 77.6%
[16]
  viability, T/C: 70.9%
[17]
  viability, T/C: 98.3%
[18]
  viability, T/C: 47.1%
[19]
  viability, T/C: 76.8%
[20]
  viability, T/C: 94.1%
[21]
  viability, T/C: 88.9%
[22]
  viability, T/C: 73.4%
[23]
  viability, T/C: 76.1%
[24]
  viability, T/C: 56.5%
[25]
  viability, T/C: 90.4%
[26]
  viability, T/C: 67.9%
[27]
  viability, T/C: 75.8%
[28]
  viability, T/C: 51.9%
[29]
  viability, T/C: 89.6%
[30]
  viability, T/C: 57%
[31]
  viability, T/C: 61.5%
[32]
  viability, T/C: 73.4%
[33]
  viability, T/C: 60.4%
[34]
  viability, T/C: 61.5%
[35]
  viability, T/C: 59.2%
[36]
  viability, T/C: 39.9%

## O=C(c1ccc(F)c(F)c1Nc1ccc(I)cc1F)N1CC(O)([C@@H]2CCCCN2)C1 + CCn1c(-c2cccnc2C(C)OC)c2c3cc(ccc31)N1CCOC(CC(NC(=O)C(C(C)C)N(C)C(=O)C3(F)CCN(C(=O)C#CC(C)(C)N(C)C)CC3)C(=O)N3CCCC(N3)C(=O)OCC(C)(C)C2)C1
Second compound 0.000949 µM
  IC50: 0.349 µM
Second compound 0.003 µM
  IC50: 0.409 µM
Second compound 0.00949 µM
  IC50: 0.154 µM
Second compound 0.03 µM
  IC50: 0.235 µM
Second compound 0.0949 µM
  IC50: 0.142 µM
Second compound 0.3 µM
  IC50: 0.0326 µM
Second compound 0.000949 µM, first compound 0.00316 µM
  viability, T/C: 90.4%
Second compound 0.000949 µM, first compound 0.01 µM
  viability, T/C: 79%
[1]
  viability, T/C: 86.3%
[2]
  viability, T/C: 61.4%
[3]
  viability, T/C: 53.8%
[4]
  viability, T/C: 39.9%
Second compound 0.003 µM, first compound 0.00316 µM
  viability, T/C: 79.3%
Second compound 0.003 µM, first compound 0.01 µM
  viability, T/C: 65.8%
[7]
  viability, T/C: 73.2%
[8]
  viability, T/C: 58%
[9]
  viability, T/C: 50.9%
[10]
  viability, T/C: 43.7%
Second compound 0.00949 µM, first compound 0.00316 µM
  viability, T/C: 77.8%
Second compound 0.00949 µM, first compound 0.01 µM
  viability, T/C: 85.8%
[13]
  viability, T/C: 68.6%
[14]
  viability, T/C: 55%
[15]
  viability, T/C: 43.4%
[16]
  viability, T/C: 36%
Second compound 0.03 µM, first compound 0.00316 µM
  viability, T/C: 97.1%
Second compound 0.03 µM, first compound 0.01 µM
  viability, T/C: 89.8%
[19]
  viability, T/C: 69.3%
[20]
  viability, T/C: 51.9%
[21]
  viability, T/C: 56.7%
[22]
  viability, T/C: 36.7%
Second compound 0.0949 µM, first compound 0.00316 µM
  viability, T/C: 89.7%
Second compound 0.0949 µM, first compound 0.01 µM
  viability, T/C: 64.1%
[25]
  viability, T/C: 68.6%
[26]
  viability, T/C: 53.6%
[27]
  viability, T/C: 44.2%
[28]
  viability, T/C: 32.3%
Second compound 0.3 µM, first compound 0.00316 µM
  viability, T/C: 67.2%
Second compound 0.3 µM, first compound 0.01 µM
  viability, T/C: 70.8%
[31]
  viability, T/C: 50.2%
[32]
  viability, T/C: 45.6%
[33]
  viability, T/C: 40%
[34]
  viability, T/C: 39.5%
